The test system of this assay is Escherichia coli. Nature of the assay: Minimum inhibitory concentration on Escherichia coli (liquid culture). The format is cell-based. Particulars: 37° C., 24 to 48 hours. As to the method:
Primary screening of liquid culture: the peptides in Examples 1 to 2 were dissolved in pure water to a concentration of 100 μg/mL. Using a micropipette, 10 μL of the peptides were added to a new 96-well plate in order from left to right, starting from the second compartment. Positive and negative controls were established for use. The 96-well plates were arranged vertically, and the peptide concentrations in the control groups were the same as those of the antimicrobial peptides. The control groups included: pure water and bacteria, antimicrobial peptide FK13 and bacteria, antimicrobial peptide HPA3NT3 and bacteria, and ciprofloxacin and bacteria. An aseptic medium was used.
If a 96-deep-well plate was used to culture bacteria, an additional 100 μL of sterile medium was added to all wells.
E. coli was inoculated in LB medium with normal oxygen concentration (21%) for 48 hours. E. coli clones were picked and incubated in LB medium at 37° C. with normal oxygen concentration (21%) for an additional 48 hours. The bacterial concentration was measured and diluted to 107 CFU/mL with culture medium for use.
The prepared fresh bacterial suspension was diluted to 105 CFU/mL and added to the 96-well plate with 90 μL of the bacterial suspension per well. The plate was incubated at 37° C. with a normal oxygen concentration for 24 to 48 hours (Propionibacterium acnes was cultured anaerobically at 37° C. for 24 to 48 hours in an anaerobic bag). The absorbance at 630 nm was measured using a microplate reader, and the degree of turbidity was observed by the naked eye.
(iv) Repetition of Operations: The Operations in (iii) were Repeated Twice, and the Decision to Perform a Third Repetition was Based on the Reproducibility of the Experiment.

With “Example 2: LSKWLKKLGKLLAG (designated as AMP33)”, the “Minimum inhibitory concentration on Escherichia coli” value turned out to be 50 mg/L.

The values above are taken from patent publication US20250263441A1 (Metanovas Biotech Inc., priority 2024, published 2025).
